Measured values as given in ChEMBL document CHEMBL1140016, “Arylpropanolamines: selective beta3 agonists arising from strategies to mitigate phase I metabolic transformations” (Bioorg Med Chem Lett, 2007).

Experiments:
[1] = biological target: T1, Beta-3 adrenergic receptor (Homo sapiens, UniProt P13945); assay: Intrinsic activity at human cloned adrenergic beta3 receptor expressed in CHO cells assessed as cAMP accumulation relative to isoproterenol; type: functional, cell-based
Target sequence in this assay (P13945 whole entry, looked up): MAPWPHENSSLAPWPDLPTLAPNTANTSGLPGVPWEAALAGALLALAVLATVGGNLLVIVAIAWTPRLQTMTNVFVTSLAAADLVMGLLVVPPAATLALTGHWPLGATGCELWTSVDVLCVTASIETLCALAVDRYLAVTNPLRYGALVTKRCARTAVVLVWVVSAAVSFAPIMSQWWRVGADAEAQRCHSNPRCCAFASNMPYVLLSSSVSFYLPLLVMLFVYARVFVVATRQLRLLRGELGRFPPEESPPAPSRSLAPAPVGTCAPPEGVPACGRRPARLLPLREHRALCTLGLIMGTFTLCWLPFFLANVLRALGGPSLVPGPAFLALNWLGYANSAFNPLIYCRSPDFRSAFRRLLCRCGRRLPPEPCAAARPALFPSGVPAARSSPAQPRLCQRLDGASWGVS

[2] = biological target: T1, Beta-3 adrenergic receptor; assay: Displacement of [125I]iodocyanopindolol from cloned human adrenergic beta-3 receptor expressed in CHO cells; type: cell-based
Target sequence in this assay (P13945 whole entry): as the sequence (P13945 whole entry, looked up) above

[3] = biological target: Beta-1 adrenergic receptor (Cavia porcellus) (UniProt B0FL73); assay: Intrinsic activity at adrenergic beta-1 receptor in spontaneously beating guinea pig atria assessed as acceleration in contraction relative to isoproterenol
Beta-1 adrenergic receptor (Cavia porcellus), sequence (B0FL73 1-467): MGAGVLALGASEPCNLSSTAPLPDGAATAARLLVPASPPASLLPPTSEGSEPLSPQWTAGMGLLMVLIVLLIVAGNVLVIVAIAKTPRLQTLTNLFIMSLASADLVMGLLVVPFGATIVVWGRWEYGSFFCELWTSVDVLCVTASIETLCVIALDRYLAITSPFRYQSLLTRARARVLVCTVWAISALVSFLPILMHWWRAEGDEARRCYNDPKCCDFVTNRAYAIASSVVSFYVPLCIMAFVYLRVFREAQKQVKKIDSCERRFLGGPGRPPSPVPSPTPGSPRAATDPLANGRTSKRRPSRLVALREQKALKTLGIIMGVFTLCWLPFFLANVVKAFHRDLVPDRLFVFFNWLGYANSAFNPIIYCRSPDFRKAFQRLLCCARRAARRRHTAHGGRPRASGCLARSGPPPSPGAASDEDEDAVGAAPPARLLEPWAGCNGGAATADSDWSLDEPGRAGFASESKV

[4] = biological target: Beta-2 adrenergic receptor (Homo sapiens, UniProt P07550); assay: Displacement of [125I]iodocyanopindolol from human cloned adrenergic beta-2 receptor expressed in CHO cells; type: cell-based
Beta-2 adrenergic receptor, sequence (P07550 whole entry): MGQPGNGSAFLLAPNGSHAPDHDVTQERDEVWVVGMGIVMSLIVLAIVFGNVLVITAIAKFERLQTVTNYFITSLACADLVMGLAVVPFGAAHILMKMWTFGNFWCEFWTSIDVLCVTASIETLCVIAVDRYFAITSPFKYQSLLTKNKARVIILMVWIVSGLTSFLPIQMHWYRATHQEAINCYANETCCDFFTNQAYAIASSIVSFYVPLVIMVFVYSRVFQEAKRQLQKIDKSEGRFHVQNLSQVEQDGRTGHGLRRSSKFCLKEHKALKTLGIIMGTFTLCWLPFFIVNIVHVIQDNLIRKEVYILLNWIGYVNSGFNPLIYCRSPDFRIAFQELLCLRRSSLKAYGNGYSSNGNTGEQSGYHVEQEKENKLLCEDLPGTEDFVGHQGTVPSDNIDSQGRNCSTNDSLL

[5] = biological target: Beta-1 adrenergic receptor (Homo sapiens, UniProt P08588); assay: Displacement of [125I]iodocyanopindolol from human cloned adrenergic beta-1 receptor expressed in CHO cells; type: cell-based
Beta-1 adrenergic receptor, sequence (P08588 whole entry): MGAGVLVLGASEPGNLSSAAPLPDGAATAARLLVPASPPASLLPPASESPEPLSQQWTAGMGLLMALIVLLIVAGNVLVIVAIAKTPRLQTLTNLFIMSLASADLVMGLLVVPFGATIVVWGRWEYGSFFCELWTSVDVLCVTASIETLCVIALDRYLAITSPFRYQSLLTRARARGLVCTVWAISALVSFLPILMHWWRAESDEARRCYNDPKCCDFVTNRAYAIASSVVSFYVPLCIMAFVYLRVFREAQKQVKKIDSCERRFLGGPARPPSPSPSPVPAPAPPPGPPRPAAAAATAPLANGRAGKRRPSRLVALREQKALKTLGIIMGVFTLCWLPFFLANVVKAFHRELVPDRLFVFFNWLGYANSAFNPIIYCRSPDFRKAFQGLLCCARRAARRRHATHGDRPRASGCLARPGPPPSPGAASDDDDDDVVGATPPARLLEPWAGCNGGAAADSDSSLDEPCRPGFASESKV

Homo sapiens [6] = species on record: Homo sapiens; assay: Selectivity ratio of Ki for human adrenergic beta-1 receptor to Ki for human adrenergic beta-3 receptor
Homo sapiens [7] = species on record: Homo sapiens; assay: Selectivity ratio of Ki for adrenergic beta2 receptor Ki for adrenergic beta-3 receptor

| Intrinsic activity [1] | Ki [2] | Ki [4] | Ki [5] | Ratio Ki (Homo sapiens [6]) | Ratio Ki (Homo sapiens [7]) | SMILES | Intrinsic activity [3] |
| --- | --- | --- | --- | --- | --- | --- | --- |
| 40% | 880 nM |  |  | 38 | 7 | CS(=O)(=O)Nc1cc(CC[C@@H](O)CN[C@H](Cc2ccccc2)c2ccc(OC(F)F)cc2)ccc1O |  |
| 86% | 59 nM | 71 nM | 490 nM | 8 | 1 | CS(=O)(=O)Nc1cc(C[C@@H](O)CN[C@@H](CCc2ccccc2)c2ccc(OC(F)F)c(OC(F)F)c2)ccc1O |  |
| 93% | 17000 nM |  |  |  |  | CS(=O)(=O)Nc1cc([C@@H](O)CN)ccc1O |  |
| 60% | 340 nM |  |  | 3 | 0.6 | CS(=O)(=O)Nc1cc(C[C@H](O)CNC(c2ccc(OC(F)F)cc2)c2ccc(OC(F)F)cc2)ccc1O |  |
| 50% | 1100 nM |  |  | 2 | 0.3 | COc1ccc(CNCC(O)Cc2ccc(O)c(NS(C)(=O)=O)c2)cc1 (stereo not given) |  |
| 60% | 19 nM | 102 nM | 690 nM |  |  | CS(=O)(=O)Nc1cc(C[C@H](O)CN[C@H](Cc2ccccc2)c2ccc(OC(F)F)c(OC(F)F)c2)ccc1O | 0% |
| 70% | 133 nM | 38 nM | 1500 nM |  |  | CS(=O)(=O)Nc1cc(C[C@H](O)CN[C@H](Cc2ccccc2)c2ccc(Cl)c(Cl)c2)ccc1O |  |
| 44% | 390 nM | 200 nM | 570 nM | 1 | 0.5 | COc1cccc([C@H](CCc2ccccc2)NC[C@H](O)Cc2ccc(O)c(NS(C)(=O)=O)c2)c1 |  |
| 0% | 120000 nM |  |  |  |  | CS(=O)(=O)Nc1c(O)ccc([C@@H](O)CN)c1F |  |
| 47% | 15000 nM |  |  | 0.08 | 0.04 | CS(=O)(=O)Nc1cc(OC[C@@H](O)CN)ccc1O |  |
| 48% | 5 nM |  |  | 66 | 7 | CS(=O)(=O)Nc1cc(OC[C@@H](O)CN[C@H](Cc2ccccc2)c2ccc(OC(F)F)cc2)ccc1O |  |
| 75% | 170 nM |  |  | 3 | 0.2 | COc1ccc(CC(Cc2ccc(OC)c(OC)c2)NC[C@@H](O)Cc2ccc(O)c(NS(C)(=O)=O)c2)cc1OC |  |
| 65% | 53 nM | 510 nM | 6000 nM |  |  | COc1ccc([C@@H](Cc2ccccc2)NC[C@@H](O)Cc2ccc(O)c(NS(C)(=O)=O)c2)cc1 |  |
| 119% |  |  |  |  |  | COc1ccc([C@H](NC[C@H](O)c2ccc(O)c(NS(C)(=O)=O)c2)C(=O)Nc2ccccc2)cc1 (stereo in doubt; 1a) |  |
| 30% | 460 nM | 3100 nM | > 10000 nM |  |  | COc1ccc([C@@H](Cc2ccccc2)NC[C@H](O)Cc2ccc(O)c(NS(C)(=O)=O)c2)cc1 | 0% |
| 46% | 360 nM |  |  | 3 | 0.4 | COc1ccc(CNC[C@H](O)COc2ccc(O)c(NS(C)(=O)=O)c2)cc1 |  |

| Intrinsic activity [1] | Ki [2] | Ki [4] | Ki [5] | Ratio Ki (Homo sapiens [6]) | Ratio Ki (Homo sapiens [7]) | SMILES | Intrinsic activity [3] |
| --- | --- | --- | --- | --- | --- | --- | --- |
| 93% | 31 nM | 280 nM | 730 nM | 24 | 9 | COc1ccc([C@H](CCc2ccccc2)NC[C@H](O)Cc2ccc(O)c(NS(C)(=O)=O)c2)cc1 |  |
| 27% | 1100 nM | 2700 nM | > 10000 nM |  |  | COc1cccc([C@@H](Cc2ccccc2)NC[C@H](O)Cc2ccc(O)c(NS(C)(=O)=O)c2)c1 | 0% |
| 86% | 7 nM |  |  |  |  | COc1ccc(C(C)(C)NC[C@H](O)c2ccc(O)c(NS(C)(=O)=O)c2)cc1 |  |
| 68% | 24 nM |  |  | 24 | 6 | COc1ccc([C@@H](Cc2ccc(Cl)cc2)NC[C@@H](O)Cc2ccc(O)c(NS(C)(=O)=O)c2)cc1OC |  |
| 77% | 270 nM |  |  |  |  | CS(=O)(=O)Nc1c(O)ccc([C@@H](O)CN[C@H](Cc2ccccc2)c2ccc(OC(F)F)cc2)c1F |  |
| 42% | 3700 nM |  |  | 1 | 1 | COc1ccc(CNC[C@H](O)CCc2ccc(O)c(NS(C)(=O)=O)c2)cc1 |  |
| 67% | 3 nM |  |  | 120 | 15 | COc1ccc([C@@H](Cc2ccccc2)NC[C@H](O)COc2ccc(O)c(NS(C)(=O)=O)c2)cc1OC |  |
| 88% | 200 nM |  |  |  |  | COc1ccc(C(C)(C)NC[C@H](O)c2ccc(O)c(NS(C)(=O)=O)c2F)cc1 |  |
| 60% | 160 nM |  |  | 112 | 27 | COc1ccc([C@@H](Cc2ccccc2)NC[C@H](O)CCc2ccc(O)c(NS(C)(=O)=O)c2)cc1OC |  |
| 70% | 8 nM | 1070 nM | 3200 nM |  |  | COc1ccc([C@@H](Cc2ccccc2)NC[C@@H](O)Cc2ccc(O)c(NS(C)(=O)=O)c2)cc1O |  |
| 73% | 7 nM | 57 nM | 270 nM | 39 | 8 | COc1ccc([C@H](CCc2ccccc2Cl)NC[C@H](O)Cc2ccc(O)c(NS(C)(=O)=O)c2)cc1OC |  |
| 58% |  |  |  |  |  | COc1ccc([C@H](NC[C@H](O)c2ccc(O)c(NS(C)(=O)=O)c2F)C(=O)Nc2ccccc2)cc1 |  |
| 44% | 110 nM | 350 nM | 3600 nM |  |  | COc1cccc([C@@H](Cc2ccccc2)NC[C@@H](O)Cc2ccc(O)c(NS(C)(=O)=O)c2)c1 |  |
| 35% | 7300 nM |  |  | 0.6 | 0.1 | COc1ccc(CCNCC(O)Cc2ccc(O)c(NS(C)(=O)=O)c2)cc1OC (stereo not given) |  |
| 65% | 7 nM |  |  | 58 | 13 | COc1ccc([C@@H](Cc2ccccc2Cl)NC[C@@H](O)Cc2ccc(O)c(NS(C)(=O)=O)c2)cc1OC |  |

| SMILES | Intrinsic activity [1] | Ki [2] | Ki [4] | Ki [5] | Ratio Ki (Homo sapiens [6]) | Ratio Ki (Homo sapiens [7]) | Intrinsic activity [3] |
| --- | --- | --- | --- | --- | --- | --- | --- |
| COc1ccc([C@H](Cc2ccccc2)NC[C@@H](O)Cc2ccc(O)c(NS(C)(=O)=O)c2)cc1OC | 62% | 9 nM | 24 nM | 560 nM |  |  | 75% |
| COc1ccc([C@H](Cc2ccccc2)NC[C@H](O)Cc2ccc(O)c(NS(C)(=O)=O)c2)cc1OC | 70% | 150 nM | 820 nM | 47000 nM |  |  | 48% |
| COc1ccc([C@@H](Cc2ccccc2)NC[C@H](O)Cc2ccc(O)c(NS(C)(=O)=O)c2)cc1OC | 43% | 25 nM | 1500 nM | > 10000 nM |  |  | 0% |
| COc1ccc([C@H](CCc2cccc(Cl)c2)NC[C@H](O)Cc2ccc(O)c(NS(C)(=O)=O)c2)cc1OC | 57% | 29 nM | 26 nM | 420 nM | 14 | 1 |  |
